The source of these data is US8188152B2, “2-aminoalcohols for the treatment of neurodegenerative diseases” (Biocopea Limited, priority 2005, dated 2012).

For this assay, the system named is SJL mouse EAE model of multiple sclerosis. Nature of the assay: Experimental Allergic Encephalomyelitis (EAE) in SJL mice, clinical neurological scoring 0-5. Conditions: 10 mg/kg orally once a day. Format: in vivo. As for the experimental part: Experimental Allergic Encephalomyelitis (EAE) is a central nervous system, autoimmune, demyleinating disease, that mimics many aspects of multiple sclerosis. Acute models of murine EAE are often utilised to evaluate the efficacy of therapeutics.
Acclimatised SJL mice were sensitised by a subcutaneous injection proteolipid protein (PLP) in Freund's complete adjuvant (CFA) acting as an encephalitogenic inoculum. Innoculum was administered subcutaneously at a concentration of 125 μg PLP/300 μg CFA in a volume of 200 μl. 48 hours later, an intraperitoneal injection of pertussis toxin (PTX) was administered at a dose of 20 μg/kg, to increase blood-brain barrier permeability.
(+)-Erythro-2-tert-butylamino-1-(3-chlorophenyl)-propan-1-ol hydrochloride and copoxane were administered from the first day of the experiment and once a day until the end. (+)-Erythro-2-tert-butylamino-1-(3-chlorophenyl)-propan-1-ol hydrochloride was administered orally at a dose of 10 mg/kg. Copaxone was administered intraperitoneally at a dose of 25 mg/kg. Throughout the experiment, careful clinical examinations and body weights were taken to observe the well being of the animal. In addition, clinical scoring of the EAE symptoms was taken to the classical 0-5 scale, as follows: • 0 Normal reactions • 1 Tail weakness • 2 Hind leg weakness and paresis • 3 Hind leg paralysis • 4 Quadriplegia • 5 Moribund/death Results

Turning to `C[C@H](NC(C)(C)C)[C@H](O)c1cccc(Cl)c1.Cl` [(+)-erythro-2-tert-butylamino-1-(3-chlorophenyl)-propan-1-ol hydrochloride], the “improvement in symptoms / disease resolution” value (compared to the vehicle) is “more rapid improvement in symptoms”. Further, the maximal neurologic score entry (versus vehicle, 0-5 scale) is listed as “no improvement”.
